Test results as given in patent publication US6087336A, “Peptide derivatives useful in treating autoimmune diseases” (Zeneca Limited, priority 1996, dated 2000).

What was measured:
[1] = tested on: B52.24 murine T cell hybridoma line; experiment: Test B: inhibition of T cell activation in vitro; type: cell-based; conditions: compared with the other isolated diastereomer
Text: Test B: Inhibition of T cell activation in vitro.
. B52.24 was produced by the fusion of lymph node T cells taken from FHA307-320 immunised HLA-DR4Dw4 transgenic mice (International Patent Application, Publication No WO95/03331) with the BW5147 murine T cell lymphoma line (White et al (1989) J. Immunol. 143, 1822) as outlined in Woods et al (1994) J. Exp. Med. 180, 173-181 and following the general methods for the generation of T cell hybridomas given in Current Protocols in Immunology, Volume 2, 7.21.
Inhibitor peptides at concentrations between 100 and 0.1 μM (or lower) were mixed with the antigenic peptide FHA307-320 in either varying concentrations between 100 and 0.1 μM or at a fixed concentration of 10 μM by dilution in RPM1-1640 culture media (Gibco) in a 96-well mictrotitre plate (Nunc) in a final volume of 100 μl. […]
The culture plates containing supernatants to be assayed were left at room temperature to thaw and […] of supernatant was transferred to fresh 96 round bottomed well plates. […] The contents of each plate were harvested onto glass fibre filter mats and the radioactivity measured using a betaplate scintillation counter.

HLA-DR4Dw4 = molecular target: T1, HLA-DR4Dw4 (Homo sapiens, UniProt P01903+P01911, A100K/A169T/F76Y/I96L/K127E/L162R/M171V/N62H/P40V/Q125Y/R42H/S133A/S149N/S66Y/V115G/V209L/W38E); experiment: Test A: purified HLA-DR peptide in vitro binding assay; conditions: compared with the other isolated diastereomer
T1 construct: a cDNA encoding the β chain is cloned into the transfer vector pAcUW1; made in house; host or cells: Sf21 insect cells, double-recombinant baculovirus
Experimental: Test A: Purified HLA-DR peptide in vitro binding assay. […]. At the end of the incubation period 100 μl of the incubate is transferred to Enzyme Linked lmmunoSorbant Assay (ELISA) plates (Nunc) previously coated with an anti-MHC antibody (L243--American Type Culture Collection (ATCC) HB55 --as described in Lampson and Levy (1980) J. Immunol. 125, 293-299) at a concentration of 10 μg/ml for 1 hour at room temperature and blocked thereafter for 1 hour with 1% bovine serum albumin (BSA) in PBS and 0.05% Tween 20. After a further 1 hour period the unbound peptide is washed away and a 1/4,000 dilution of streptavidin peroxidase (Sigma) in PBS with 0.01% of a suitable detergent such as NP40 (Sigma) added for 2 hours at room temperature. After further washing, tetramethylbenzidene (TMB) substrate solution (1 TMB tablet (Sigma) in 10 mIs of 0.1 M citrate/acetate buffer, pH 6.0 with 36 μl urea hydrogen peroxide (UHPO) (Fluka)) is added to each of the plates. The reaction is stopped by adding 2M sulphuric acid (10 μl per well) and the absorbance read at 450 nm to quantify the amount of peptide bound. The inhibitory activity of peptides is obtained by plotting absorbance against concentration.
The purified HLA-DR4Dw4 may be obtained as follows:
(i) Expression of HLA-DR in the Baculovirus System
The expression of recombinant proteins in insect cells from baculovirus vectors is an established procedure to obtain high yields of recombinant protein [Luckow, V A & Summers, M D, 1988, Biotechnology, 6, 47-551]. To enable the expression of the heterodimeric HLA-DR, eg. HLA-DR4Dw4, from a single recombinant baculovirus vector (as opposed to having separate recombinant viruses for the α and β chains and then doing a co-infection), a double-recombinant baculovirus is constructed which carries both the α and β chains.
A cDNA encoding the sequence of the α polypeptide is cloned into the transfer vector pacYM1 [Matsuura, Y; Possee, R D; Overton, H A & Bishop, D H L, 1987, J. Gen. […] The molecular genetic techniques used to construct the recombinant vectors are likewise readily available in the literature and are most fully described by Sambrook, J; Fritsch, E F & Maniatis T, (1989) [Molecular Cloning. […]
To create the double-recombinant baculovirus, a cDNA encoding the β chain is cloned into the transfer vector pAcUW1 [Weyer, U; Knight, S & Possee, R D, 1990, J. Gen. […] Double-recombinant viruses are detected by spotting insect cells, infected with randomly picked viruses from the transfection, onto membranes and reacting them with a monoclonal antibody, e.g. L243, which specifically recognises the HLA-DR heterodimer. Binding of the antibody to Sf21 insect cells is detected using standard flow cytometry techniques, readily available in the literature. […]

Phv-Ala-Ala-Ala-Lys-Val-III-Ala-Pip-NH2 [more polar diastereomer]
relative potency of diastereomers in Test B [1]: more potent than the less polar diastereomer
relative potency of diastereomers in Test A (HLA-DR4Dw4): more potent than the less polar diastereomer
